Assay results taken from US20070128217A1 (priority 2003, published 2007).

Columns and labels:
[1] = system: antibodies in sera from SARS patients (sera 1a, 1b, 2, 6, 37, 62, London, SARS-yellow, SARS-green); type: binding, human; set-up: Binding of serum 6 to linear peptides of protein X1 of SARS-CoV Urbani / Binding of serum 37 to linear peptides of protein X1 of SARS-CoV Urbani / Binding of serum 6 to looped/cyclic peptide (PEPSCAN-ELISA) / Binding of serum 37 to looped/cyclic peptide (PEPSCAN-ELISA) / Binding of serum 37 to looped/cyclic peptides of protein X1 of SARS-CoV Urbani / Binding of serum 6 to linear peptides of protein X2 / Binding of serum 37 to linear peptides of protein X2 / Binding of serum 37 to looped/cyclic peptides of protein X2 of SARS-CoV Urbani / Binding of serum 6 to linear peptides of protein M of SARS-CoV Urbani / Binding of serum 37 to linear peptides of protein M of SARS-CoV Urbani / Binding of serum 6 to looped/cyclic peptides of protein M of SARS-CoV Urbani / Binding of serum 37 to looped/cyclic peptides of protein M of SARS-CoV Urbani / Binding of serum 6 to linear peptides of protein X3 of SARS-CoV Urbani / Binding of serum 37 to linear peptides of protein X3 of SARS-CoV Urbani / Binding of serum 37 to looped/cyclic peptides of protein X3 of SARS-CoV Urbani / Binding of serum 6 to linear peptides of protein X4 of SARS-CoV Urbani / Binding of serum 37 to linear peptides of protein X4 of SARS-CoV Urbani / Binding of serum 37 to looped/cyclic peptides of protein X4 of SARS-CoV Urbani / Binding of serum 6 to linear peptides of protein X5 of SARS-CoV Urbani / Binding of serum 37 to linear peptides of protein X5 of SARS-CoV Urbani / Binding of serum 37 to looped/cyclic peptides of protein X5 of SARS-CoV Urbani / Binding of serum 6 to linear peptides of protein N of SARS-CoV Urbani / Binding of serum 37 to linear peptides of protein N of SARS-CoV Urbani / Binding of serum 6 to linear peptide (PEPSCAN-ELISA) / Binding of serum 1a to looped/cyclic peptides of protein N of SARS-CoV Urbani / Binding of serum 1b to looped/cyclic peptides of protein N of SARS-CoV Urbani / Binding of serum 2 to looped/cyclic peptides of protein N of SARS-CoV Urbani / Binding of serum 6 to looped/cyclic peptides of protein N of SARS-CoV Urbani / Binding of serum 37 to looped/cyclic peptides of protein N of SARS-CoV Urbani / Binding of serum 62 to looped/cyclic peptides of protein N of SARS-CoV Urbani / Binding of serum London to looped/cyclic peptides of protein N of SARS-CoV Urbani / Binding of serum SARS-green to looped/cyclic peptides of protein N of SARS-CoV Urbani: unit not given here
[2] = system: control sera (pooled serum of ten healthy LUMC hospital workers; commercial negative donor pooled serum from the Dutch bloodbank); type: binding, human
[3] = system: rabbit serum obtained by immunizing a rabbit with the SARS-CoV strain Frankfurt 1; type: binding; set-up: Binding of a rabbit serum to linear peptides / Binding of a rabbit serum to looped peptides / Rabbit serum linear peptides / Rabbit serum looped peptides / Binding of a rabbit serum to linear peptides of protein N of SARS-CoV Urbani (Rabbit serum linear peptides) / Binding of a rabbit serum to looped/cyclic peptides of protein N of SARS-CoV Urbani (Rabbit serum looped peptides): unit not given here
[4] = system: recombinant human anti-SARS-CoV antibody 03-018; type: binding; set-up: Binding of antibody 03-018 to linear peptides of the N protein of SARS-CoV Urbani / Binding of antibody 03-018 to looped/cyclic peptides of the N protein of SARS-CoV Urbani: unit not given here

HIDAYKTFPPTEPKK
Binding of serum 1a to linear peptides of protein N of SARS-CoV Urbani [1]: 0.2 | Binding of serum 1a to looped/cyclic peptides of protein N of SARS-CoV Urbani [1]: 0.2 | Binding of serum 1b to linear peptides of protein N of SARS-CoV Urbani [1]: 0.1 | Binding of serum 1b to looped/cyclic peptides of protein N of SARS-CoV Urbani [1]: 0.1 | Binding of serum 2 to linear peptides of protein N of SARS-CoV Urbani [1]: 0.2 | Binding of serum 2 to looped/cyclic peptides of protein N of SARS-CoV Urbani [1]: 0.2 | Binding of serum 6 to linear peptides of protein N of SARS-CoV Urbani [1]: 0.2 | Binding of serum 6 to looped/cyclic peptides of protein N of SARS-CoV Urbani [1]: 0.1 | Binding of serum 37 to linear peptides of protein N of SARS-CoV Urbani [1]: 0.6 | Binding of serum 37 to looped/cyclic peptides of protein N of SARS-CoV Urbani [1]: 0.3 | Binding of serum 62 to linear peptides of protein N of SARS-CoV Urbani [1]: 0.6 | Binding of serum 62 to looped/cyclic peptides of protein N of SARS-CoV Urbani [1]: 0.2 | Binding of serum London to linear peptides of protein N of SARS-CoV Urbani [1]: 0.4 | Binding of serum London to looped/cyclic peptides of protein N of SARS-CoV Urbani [1]: 0.3 | Binding of serum SARS-green to linear peptides of protein N of SARS-CoV Urbani [1]: 0.2 | Binding of serum SARS-green to looped/cyclic peptides of protein N of SARS-CoV Urbani [1]: 0.0 | Binding of serum SARS-yellow to linear peptides of protein N of SARS-CoV Urbani [1]: 0.5 | Binding of serum SARS-yellow to looped/cyclic peptides of protein N of SARS-CoV Urbani [1]: 0.0 | Control Serum Blood-Bank Looped peptides [2]: 0.4 | Control serum Blood-bank linear peptides [2]: 0.6 | Control serum LUMC linear peptides [2]: 0.7 | Control serum LUMC looped peptides [2]: 0.3 | Binding of a rabbit serum to linear peptides of protein N of SARS-CoV Urbani (Rabbit serum linear peptides) [3]: 0.1 | Binding of a rabbit serum to looped/cyclic peptides of protein N of SARS-CoV Urbani (Rabbit serum looped peptides) [3]: 0.0 | Binding of antibody 03-018 to linear peptides of the N protein of SARS-CoV Urbani [4]: 0.1 | Binding of antibody 03-018 to looped/cyclic peptides of the N protein of SARS-CoV Urbani [4]: 0.2

HWPQIAQFAPSASAF
Binding of serum 1a to linear peptides of protein N of SARS-CoV Urbani [1]: 0.3 | Binding of serum 1a to looped/cyclic peptides of protein N of SARS-CoV Urbani [1]: 0.5 | Binding of serum 1b to linear peptides of protein N of SARS-CoV Urbani [1]: 0.2 | Binding of serum 1b to looped/cyclic peptides of protein N of SARS-CoV Urbani [1]: 0.3 | Binding of serum 2 to linear peptides of protein N of SARS-CoV Urbani [1]: 0.2 | Binding of serum 2 to looped/cyclic peptides of protein N of SARS-CoV Urbani [1]: 0.5 | Binding of serum 6 to linear peptides of protein N of SARS-CoV Urbani [1]: 0.2 | Binding of serum 6 to looped/cyclic peptides of protein N of SARS-CoV Urbani [1]: 0.4 | Binding of serum 37 to linear peptides of protein N of SARS-CoV Urbani [1]: 0.8 | Binding of serum 37 to looped/cyclic peptides of protein N of SARS-CoV Urbani [1]: 0.8 | Binding of serum 62 to linear peptides of protein N of SARS-CoV Urbani [1]: 0.7 | Binding of serum 62 to looped/cyclic peptides of protein N of SARS-CoV Urbani [1]: 1.0 | Binding of serum London to linear peptides of protein N of SARS-CoV Urbani [1]: 0.6 | Binding of serum London to looped/cyclic peptides of protein N of SARS-CoV Urbani [1]: 0.6 | Binding of serum SARS-green to linear peptides of protein N of SARS-CoV Urbani [1]: 0.4 | Binding of serum SARS-green to looped/cyclic peptides of protein N of SARS-CoV Urbani [1]: 0.6 | Binding of serum SARS-yellow to linear peptides of protein N of SARS-CoV Urbani [1]: 0.8 | Binding of serum SARS-yellow to looped/cyclic peptides of protein N of SARS-CoV Urbani [1]: 0.6 | Control Serum Blood-Bank Looped peptides [2]: 0.8 | Control serum Blood-bank linear peptides [2]: 0.8 | Control serum LUMC linear peptides [2]: 0.7 | Control serum LUMC looped peptides [2]: 0.8 | Binding of a rabbit serum to linear peptides of protein N of SARS-CoV Urbani (Rabbit serum linear peptides) [3]: 0.1 | Binding of a rabbit serum to looped/cyclic peptides of protein N of SARS-CoV Urbani (Rabbit serum looped peptides) [3]: 0.7 | Binding of antibody 03-018 to linear peptides of the N protein of SARS-CoV Urbani [4]: 0.1 | Binding of antibody 03-018 to looped/cyclic peptides of the N protein of SARS-CoV Urbani [4]: 0.2

IAQFAPSASAFFGMS
Binding of serum 1a to linear peptides of protein N of SARS-CoV Urbani [1]: 0.2 | Binding of serum 1a to looped/cyclic peptides of protein N of SARS-CoV Urbani [1]: 0.4 | Binding of serum 1b to linear peptides of protein N of SARS-CoV Urbani [1]: 0.1 | Binding of serum 1b to looped/cyclic peptides of protein N of SARS-CoV Urbani [1]: 0.2 | Binding of serum 2 to linear peptides of protein N of SARS-CoV Urbani [1]: 0.1 | Binding of serum 2 to looped/cyclic peptides of protein N of SARS-CoV Urbani [1]: 0.4 | Binding of serum 6 to linear peptides of protein N of SARS-CoV Urbani [1]: 0.1 | Binding of serum 6 to looped/cyclic peptides of protein N of SARS-CoV Urbani [1]: 0.3 | Binding of serum 37 to linear peptides of protein N of SARS-CoV Urbani [1]: 0.6 | Binding of serum 37 to looped/cyclic peptides of protein N of SARS-CoV Urbani [1]: 0.7 | Binding of serum 62 to linear peptides of protein N of SARS-CoV Urbani [1]: 0.5 | Binding of serum 62 to looped/cyclic peptides of protein N of SARS-CoV Urbani [1]: 0.6 | Binding of serum London to linear peptides of protein N of SARS-CoV Urbani [1]: 0.4 | Binding of serum London to looped/cyclic peptides of protein N of SARS-CoV Urbani [1]: 0.4 | Binding of serum SARS-green to linear peptides of protein N of SARS-CoV Urbani [1]: 0.2 | Binding of serum SARS-green to looped/cyclic peptides of protein N of SARS-CoV Urbani [1]: 0.4 | Binding of serum SARS-yellow to linear peptides of protein N of SARS-CoV Urbani [1]: 0.6 | Binding of serum SARS-yellow to looped/cyclic peptides of protein N of SARS-CoV Urbani [1]: 0.4 | Control Serum Blood-Bank Looped peptides [2]: 0.8 | Control serum Blood-bank linear peptides [2]: 0.7 | Control serum LUMC linear peptides [2]: 0.6 | Control serum LUMC looped peptides [2]: 0.6 | Binding of a rabbit serum to linear peptides of protein N of SARS-CoV Urbani (Rabbit serum linear peptides) [3]: 0.2 | Binding of a rabbit serum to looped/cyclic peptides of protein N of SARS-CoV Urbani (Rabbit serum looped peptides) [3]: 0.4 | Binding of antibody 03-018 to linear peptides of the N protein of SARS-CoV Urbani [4]: 0.1 | Binding of antibody 03-018 to looped/cyclic peptides of the N protein of SARS-CoV Urbani [4]: 0.3
